Source: ChEMBL document CHEMBL3243983, “2-(Alkoxyaryl)-2-imidazoline monoamine oxidase inhibitors with antidepressant activity” (J Med Chem, 1978)
Activity calls are given as the source filed them. The calls are words filed in the database; no cut-off is given here.

What was measured:
[1] = Inhibition of MAO in mouse brain using serotonin as substrate; format: tissue-based
[2] = system: Mus musculus; experiment: Antidepressant activity in mouse assessed as antagonism of tetrabenazine-induced symptoms at 10 mg/kg, ip administered 30 mins before 35 mg/kg, ip tetrabenazine challenge measured after 30 mins by arousal test; format: functional
[3] = species: Rattus norvegicus; experiment: Inhibition of MAO in rat brain using serotonin as substrate preincubated for 15 mins; format: tissue-based
[4] = species: Rattus norvegicus; experiment: Irreversible inhibition of MAO in rat brain using serotonin as substrate measured after dilution; format: tissue-based
[5] = species: Rattus norvegicus; experiment: Irreversible inhibition of MAO in rat brain using serotonin as substrate preincubated for 15 mins measured after dialysis; format: tissue-based

Compound	IC50 [1]	inhibition (INH) [2]	inhibition [3]	inhibition [4]	inhibition [5]
CCCCOc1c(CCC)cc(C2=NCCN2)c2ccccc12	4900 nM	<30%			
CCCCOc1ccc(C2=NC(C)(C)CN2)c2ccccc12.Cl	6000 nM	<30%			
CCCCOc1ccc2c(C3=NCCN3)cccc2c1	32 nM	60%			
CCCCOc1ccc(C2=NC(C)CN2)c2ccccc12 (stereo unspecified)	60 nM	<60%			
Oc1ccc(C2=NCCN2)c2ccccc12	12000 nM	<30%			
CCCCCCOc1ccc2c(C3=NCCN3)cccc2c1	3400 nM	<30%			
c1ccc2c(c1)cc(C1=NCCN1)c1ccccc12	35000 nM	<30%			
C#CCN(C)Cc1ccccc1 [PARGYLINE]	1200 nM	60%			

Now from value to compound, other results behind:

IC50 [1]	Compound	inhibition (INH) [2]	inhibition [3]	inhibition [4]	inhibition [5]
91 nM	CCCOc1ccc(C2=NCCN2)c2ccccc12	60%			
58 nM	CCCCOc1ccc(C2=NCCN2)c2ccccc12	60%	96%	Active	77%
400 nM	CCCCCCCOc1ccc(C2=NCCN2)c2ccccc12	<30%	91%	Active	93%
350 nM	CCCCCCOc1ccc(C2=NCCN2)c2ccccc12	40%			
50 nM	CCCCOc1ccc(C2=NCCCN2)c2ccccc12	30%			
54 nM	CCOc1ccc(C2=NCCN2)c2ccccc12	50%			
91 nM	CCCCCOc1ccc(C2=NCCN2)c2ccccc12	50%			
